Source: patent US20070191374A1, “Substituted cinnolin-4-ylamines” (Neurogen Coroperation, priority 2004, published 2007)

How the values were obtained:
human capsaicin receptor = biological target: T1, human capsaicin receptor (Homo sapiens, UniProt Q8NER1); test: Calcium mobilization assay; assay type: cell-based; conditions: cells expressing human capsaicin receptor, FLUO-3 fluorescence; positive control in agonist assay; read-out: approximate EC90 concentration
T1 construct: pBK-CMV expression construct encoding the full length human capsaicin receptor; expressed in transfected cells
T1 sequence (Q8NER1 whole entry): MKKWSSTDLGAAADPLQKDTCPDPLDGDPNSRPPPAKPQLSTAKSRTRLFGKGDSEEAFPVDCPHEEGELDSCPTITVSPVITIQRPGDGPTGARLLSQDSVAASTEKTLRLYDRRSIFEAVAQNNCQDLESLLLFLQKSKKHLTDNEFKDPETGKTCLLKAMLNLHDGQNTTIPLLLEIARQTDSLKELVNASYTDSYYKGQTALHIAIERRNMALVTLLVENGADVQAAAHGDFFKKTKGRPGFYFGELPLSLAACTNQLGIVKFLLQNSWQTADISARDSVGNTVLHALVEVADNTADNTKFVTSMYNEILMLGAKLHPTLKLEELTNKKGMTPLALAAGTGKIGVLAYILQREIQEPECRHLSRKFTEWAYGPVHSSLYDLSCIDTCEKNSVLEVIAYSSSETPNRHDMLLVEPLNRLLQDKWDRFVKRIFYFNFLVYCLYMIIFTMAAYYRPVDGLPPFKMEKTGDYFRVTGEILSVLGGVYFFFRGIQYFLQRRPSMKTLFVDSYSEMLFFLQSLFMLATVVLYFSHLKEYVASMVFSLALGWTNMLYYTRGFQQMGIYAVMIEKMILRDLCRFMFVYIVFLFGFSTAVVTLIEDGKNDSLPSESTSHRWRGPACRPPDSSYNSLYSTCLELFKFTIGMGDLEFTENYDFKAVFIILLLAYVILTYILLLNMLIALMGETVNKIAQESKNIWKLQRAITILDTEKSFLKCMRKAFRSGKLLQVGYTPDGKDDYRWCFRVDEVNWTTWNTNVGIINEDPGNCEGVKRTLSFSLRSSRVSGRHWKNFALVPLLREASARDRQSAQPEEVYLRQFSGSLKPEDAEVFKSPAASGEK
Procedure: This Example illustrates representative calcium mobilization assays for use in evaluating test compounds for agonist and antagonist activity.
The culture medium is emptied from the 96 well plates and FLUO-3 AM calcium sensitive dye (Molecular Probes, Eugene, Oreg.) is added to each well (dye solution: 1 mg FLUO-3 AM, 440 μL DMSO and 440 μl 20% pluronic acid in DMSO, diluted 1:250 in Krebs-Ringer HEPES (KRH) buffer (25 mM HEPES, 5 mM KCl, 0.96 mM NaH2PO4, 1 mM MgSO4, 2 mM CaCl2, 5 mM glucose, 1 mM probenecid, pH 7.4), 50 μl diluted solution per well). Plates are covered with aluminum foil and incubated at 37° C. for 1-2 hours in an environment containing 5% CO2. […]
To measure the ability of a test compound to agonize or antagonize a calcium mobilization response in cells expressing capsaicin receptors to capsaicin or other vanilloid agonist, the EC50 of the agonist capsaicin is first determined. […] Capsaicin-induced calcium mobilization is monitored using either FLUOROSKAN ASCENT (Labsystems; Franklin, Mass.) or FLIPR (fluorometric imaging plate reader system; Molecular Devices, Sunnyvale, Calif.) instruments. […] In this equation, y is the maximum fluorescence signal, x is the concentration of the agonist or antagonist (in this case, capsaicin), a is the Emax, b corresponds to the EC50 value and c is the Hill coefficient. […]

VR = VR (Homo sapiens, UniProt Q8NER1); conditions: typical value, background section; read-out: K; value (binds to VR); cited from earlier work
Chain of VR (Q8NER1 whole entry): as above

COc1cc(CNC(=O)CCCC/C=C/C(C)C)ccc1O [capsaicin]
EC90 (human capsaicin receptor): ~100 nM

Cl.Cl.Cl.Cl.Cl.Cl.N.N.N.N.N.N.N.N.N.N.N.N.N.N.[O-2].[O-2].[Ru+3].[Ru+3].[Ru+4] [ruthenium red]
Ki (VR): ≥ 140000 nM
